Test results as given in PubChem BioAssay (NCI).
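1) Cells in 96-well plates. 2) Compound, 48 h, 5 concentrations. 3) Linear interpolation between surrounding doses. 4) Unreached endpoint = highest concentration. The concentration for full growth arrest is given as TGI.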

tested on: HL-60(TB) leukemia; test: DTP human tumour cell line panel, 48 h

For `COc1cc(C(c2ccc3c(c2)OCO3)N2C(=O)CCC2C(=O)O)cc(OC)c1OC` (configuration not stated), the TGI was over 100 µM.

tested on: HOP-62 NSCLC; test: DTP human tumour cell line panel, 48 h

`CCNC1=C(NC(=O)CC)C(=O)c2ccccc2C1=O` and `COC12c3ccccc3-c3ccccc3C1[C@H]1C(=O)OC(=O)[C@H]12` (some centres not stated) cannot be ordered by TGI: over 100 µM for the first, over 10 µM for the second.

First: CC1(C)OC2C(=O)C=C(COCc3ccccc3)C2O1 (configuration not stated)
Second: O=C(CSC1=NCCN1)Nc1ccccc1
The TGI of the first is lower: 79 µM for the first, over 100 µM for the second.

Compared with `CCC1(O)C(=O)OCc2c1cc1n(c2=O)Cc2cc3cc(N)ccc3nc2-1` (configuration not stated), `COc1cc(C(c2ccc3c(c2)OCO3)N2C(=O)CCC2C(=O)O)cc(OC)c1OC` (configuration not stated) is higher in TGI: 0.357 µM for the first, over 100 µM for the second.

tested on: A549 NSCLC; test: DTP human tumour cell line panel, 48 h

`CCOC(=O)[C@H](Cc1ccc(O)cc1)N=C1[C@H]2CCC[C@]1(O)[C@@](C)([N+](=O)[O-])C2` and `COc1cc(C(c2ccc3c(c2)OCO3)N2C(=O)CCC2C(=O)O)cc(OC)c1OC` (configuration not stated) cannot be ordered by TGI: over 100 µM for the first, over 100 µM for the second.

`CCNC1=C(NC(=O)CC)C(=O)c2ccccc2C1=O` and `O=C(CSC1=NCCN1)Nc1ccccc1` cannot be ordered by TGI: over 100 µM for the first, over 100 µM for the second.

First: CC1(C)OC2C(=O)C=C(COCc3ccccc3)C2O1 (configuration not stated)
Second: CCC1(O)C(=O)OCc2c1cc1n(c2=O)Cc2cc3cc(N)ccc3nc2-1 (configuration not stated)
The TGI of the first is higher: over 100 µM for the first, 2.41 µM for the second.

With `Cc1ccc(S(=O)(=O)NCCSCCSCCNS(=O)(=O)c2ccc(C)cc2)cc1` the TGI was over 100 µM.

tested on: MDA-MB-435; test: DTP human tumour cell line panel, 48 h

`CCOC(=O)[C@H](Cc1ccc(O)cc1)N=C1[C@H]2CCC[C@]1(O)[C@@](C)([N+](=O)[O-])C2` and `COc1cc(C(c2ccc3c(c2)OCO3)N2C(=O)CCC2C(=O)O)cc(OC)c1OC` (configuration not stated) cannot be ordered by TGI: over 100 µM for the first, over 100 µM for the second.

`CC1(C)OC2C(=O)C=C(COCc3ccccc3)C2O1` (configuration not stated) and `COC12c3ccccc3-c3ccccc3C1[C@H]1C(=O)OC(=O)[C@H]12` (some centres not stated) cannot be ordered by TGI: 71.2 µM for the first, over 10 µM for the second.

`O=C(CSC1=NCCN1)Nc1ccccc1` gave a TGI of over 100 µM.

tested on: HCT-116 colon; test: DTP human tumour cell line panel, 48 h

`CCOC(=O)[C@H](Cc1ccc(O)cc1)N=C1[C@H]2CCC[C@]1(O)[C@@](C)([N+](=O)[O-])C2` and `COc1cc(C(c2ccc3c(c2)OCO3)N2C(=O)CCC2C(=O)O)cc(OC)c1OC` (configuration not stated) cannot be ordered by TGI: over 100 µM for the first, over 100 µM for the second.

First: CCNC1=C(NC(=O)CC)C(=O)c2ccccc2C1=O
Second: O=C(CSC1=NCCN1)Nc1ccccc1
The TGI of the first is higher: over 100 µM for the first, 59.6 µM for the second.

Compared with `CC1(C)OC2C(=O)C=C(COCc3ccccc3)C2O1` (configuration not stated), `Cc1ccc(S(=O)(=O)NCCSCCSCCNS(=O)(=O)c2ccc(C)cc2)cc1` is higher in TGI: 54.3 µM for the first, over 100 µM for the second.

tested on: OVCAR-8 ovarian; test: DTP human tumour cell line panel, 48 h

`CCOC(=O)[C@H](Cc1ccc(O)cc1)N=C1[C@H]2CCC[C@]1(O)[C@@](C)([N+](=O)[O-])C2` and `COc1cc(C(c2ccc3c(c2)OCO3)N2C(=O)CCC2C(=O)O)cc(OC)c1OC` (configuration not stated) cannot be ordered by TGI: over 100 µM for the first, over 100 µM for the second.

`CCNC1=C(NC(=O)CC)C(=O)c2ccccc2C1=O` and `COC12c3ccccc3-c3ccccc3C1[C@H]1C(=O)OC(=O)[C@H]12` (some centres not stated) cannot be ordered by TGI: over 100 µM for the first, over 10 µM for the second.

`CC1(C)OC2C(=O)C=C(COCc3ccccc3)C2O1` (configuration not stated) and `O=C(CSC1=NCCN1)Nc1ccccc1` cannot be ordered by TGI: over 100 µM for the first, over 100 µM for the second.

First: CCC1(O)C(=O)OCc2c1cc1n(c2=O)Cc2cc3cc(N)ccc3nc2-1 (configuration not stated)
Second: Cc1ccc(S(=O)(=O)NCCSCCSCCNS(=O)(=O)c2ccc(C)cc2)cc1
The TGI of the first is lower: 4.45 µM for the first, over 100 µM for the second.

tested on: KM12 colon; test: DTP human tumour cell line panel, 48 h

`CCOC(=O)[C@H](Cc1ccc(O)cc1)N=C1[C@H]2CCC[C@]1(O)[C@@](C)([N+](=O)[O-])C2` and `COc1cc(C(c2ccc3c(c2)OCO3)N2C(=O)CCC2C(=O)O)cc(OC)c1OC` (configuration not stated) cannot be ordered by TGI: over 100 µM for the first, over 100 µM for the second.

`CCNC1=C(NC(=O)CC)C(=O)c2ccccc2C1=O` and `COC12c3ccccc3-c3ccccc3C1[C@H]1C(=O)OC(=O)[C@H]12` (some centres not stated) cannot be ordered by TGI: over 100 µM for the first, over 10 µM for the second.

First: CC1(C)OC2C(=O)C=C(COCc3ccccc3)C2O1 (configuration not stated)
Second: O=C(CSC1=NCCN1)Nc1ccccc1
The TGI of the first is lower: 51.1 µM for the first, over 100 µM for the second.

`Cc1ccc(S(=O)(=O)NCCSCCSCCNS(=O)(=O)c2ccc(C)cc2)cc1` gave a TGI of over 100 µM.

tested on: IGROV1 ovarian; test: DTP human tumour cell line panel, 48 h

`CCOC(=O)[C@H](Cc1ccc(O)cc1)N=C1[C@H]2CCC[C@]1(O)[C@@](C)([N+](=O)[O-])C2` and `COc1cc(C(c2ccc3c(c2)OCO3)N2C(=O)CCC2C(=O)O)cc(OC)c1OC` (configuration not stated) cannot be ordered by TGI: over 100 µM for the first, over 100 µM for the second.

`CCNC1=C(NC(=O)CC)C(=O)c2ccccc2C1=O` and `COC12c3ccccc3-c3ccccc3C1[C@H]1C(=O)OC(=O)[C@H]12` (some centres not stated) cannot be ordered by TGI: over 100 µM for the first, over 10 µM for the second.

First: CC1(C)OC2C(=O)C=C(COCc3ccccc3)C2O1 (configuration not stated)
Second: O=C(CSC1=NCCN1)Nc1ccccc1
The TGI of the first is lower: 53.5 µM for the first, over 100 µM for the second.

In the case of `CCC1(O)C(=O)OCc2c1cc1n(c2=O)Cc2cc3cc(N)ccc3nc2-1` (configuration not stated), the TGI is reported as over 55.2 µM.

tested on: A498 renal; test: DTP human tumour cell line panel, 48 h

`CCOC(=O)[C@H](Cc1ccc(O)cc1)N=C1[C@H]2CCC[C@]1(O)[C@@](C)([N+](=O)[O-])C2` and `CC1(C)OC2C(=O)C=C(COCc3ccccc3)C2O1` (configuration not stated) cannot be ordered by TGI: over 100 µM for the first, over 100 µM for the second.

`O=C(CSC1=NCCN1)Nc1ccccc1` and `COC12c3ccccc3-c3ccccc3C1[C@H]1C(=O)OC(=O)[C@H]12` (some centres not stated) cannot be ordered by TGI: over 100 µM for the first, over 10 µM for the second.

With `CCC1(O)C(=O)OCc2c1cc1n(c2=O)Cc2cc3cc(N)ccc3nc2-1` (configuration not stated) the TGI was 1.06 µM.
